The values below are quoted from earlier work in patent publication US8178516B2, “Compositions and method for treatment of chronic inflammatory diseases” (Sylvan Labs, LLC, priority 1992, dated 2012).

Data set [1] has as its system myocardial glutathione. The conditions noted are these: subsequent to experimental ischemia and reperfusion.
Data set [2] relates to plasma cysteine, plasma glutathione and red blood cell glutathione. Particulars: in vivo.

On to `CC(=O)N[C@@H](CS)C(=O)O` [N-acetylcysteine], for which the “increase in myocardial glutathione” value in data set [1] is recorded as 100 fold. For the same compound, in data set [2], the “levels of plasma cysteine, plasma glutathione and red blood cell glutathione” value was “increase”.
